The text below walks through data of patent US8465763B2, “3-hydroxychlormadinone acetate for the topical treatment of androgen-dependent skin diseases” (Richter Gedeon Nyrt., priority 2006, dated 2013).

The structures appear in SMILES notation. Entries after “also recorded” stand apart in the source; their conditions may differ.

Data set [1] is described as follows: Permeation through human abdominal skin in a flow-through cell. It counts as in vitro ADME. The conditions noted are these: for skin penetration compared with CMA (times lower) / skin permeability / skin penetration compared with CMA (in words): relative to CMA; for average dose released by human abdominal skin after 24 hours: mean of 3 independent experiments, 5% suspension in aqueous 0.05% polysorbate 80 solution, dissected skin approx. 300 μm, approx. 19.7 mm^2, 34° C., receptor fluid pH 7.35. An excerpt:
Determination of Permeation of Chlormadinone Acetate (CMA) and 3β-Hydroxychlormadinone Acetate Through Human Abdominal Skin
Fragments of human abdominal skin arising during stomach reduction operations were placed in a Petri dish with dissection solution (Na^+: 144 mmol/l, K^+: 5.9 mmol/l, Ca^2+: 3.7 mmol/l, Cl,^−: 157 mmol/l). The skin fragments were reduced in thickness from the corium side, in several steps, down to a layer thickness of approx. 300 μm, while being kept moist with the dissection solution. Mechanically stable dissected skin was thus obtained, consisting of epidermis with approx. 150-200 μm of cutis. The layer thickness of the dissected skin fragments was determined by measuring with an external screw-type micrometer made by MITUTOYO. The area of the dissected skin fragments used amounted to approx. 19.7 mm^2.
Permeation of CMA respectively 3β-hydroxychlormadinone acetate through human abdominal skin was determined in a flow-through cell, which is illustrated schematically in FIG. 1. A receptor fluid (1) was here pumped past the underside of the dissected skin (2) with a peristaltic pump at a rate of 270 μl per hour. The dissected skin was clamped between the upper part (3) and the lower part (4) of the permeability cell (5). From above, vehicle with 3β-hydroxychlormadinone acetate (5% suspension in aqueous 0.05% polysorbate 80 solution) or chlormadinone acetate (5% suspension in aqueous 0.05% polysorbate 80 solution) was applied in each case to the skin, which then diffused through the dissected skin (2) into the receptor fluid (1). The dissected skin was moistened by a stationary donor fluid (9), which is situated in a reservoir (7). The internal diameter of the receptor fluid feed line (6) was 0.6 mm, and the receptor fluid volume below the skin amounted to approx. 80 μl. The receptor fluid (1) was analysed at fixed intervals by means of a fraction collector (8) and then by HPLC. These experiments allowed a quantitative statement to be made about the amount of substance diffused as a function of time.
An aqueous, isotonic tris buffer (20 mmol/l) with 20% ethanol was used as the receptor fluid and adjusted with NaCl to 310 mosmol (0.9 wt. %). The pH value of the receptor fluid was 7.35. A hole punch was used to punch a piece corresponding to the area of the dissected skin out of a plaster containing the active ingredient to be investigated, said piece being stuck to the dissected skin. […] The experiments were carried out at a test temperature of 34° C. In each case 3 independent series of measurements were made with CMA respectively 3β-hydroxychlormadinone acetate.

Data set [2] can be described thus: Antiandrogenic efficacy compared with CMA. The conditions noted are these: no method described.

In the case of `CC(=O)O[C@]1(C(C)=O)CC[C@H]2[C@@H]3C=C(Cl)C4=C[C@H](O)CC[C@]4(C)[C@H]3CC[C@@]21C` [3α-hydroxychlormadinone acetate, 17α-acetoxychloropregna-4,6-dien-3α-ol-20-one], in data set [1], the “skin penetration compared with CMA (times lower)” value was found to be 6 times and the “skin permeability / skin penetration compared with CMA (in words)” value was “far lesser degree of skin penetration compared with CMA”. Moreover, the “antiandrogenic efficacy relative to CMA (ratio)” value in data set [2] was 0.7 times.

For `CC(=O)O[C@]1(C(C)=O)CC[C@H]2[C@@H]3C=C(Cl)C4=CC(=O)CC[C@]4(C)[C@H]3CC[C@@]21C` [CMA, chlormadinone acetate], in data set [1], the “average dose released by human abdominal skin after 24 hours” value is 4.4 µg.

As for `CC(=O)O[C@]1(C(C)=O)CC[C@H]2[C@@H]3C=C(Cl)C4=C[C@@H](O)CC[C@]4(C)[C@H]3CC[C@@]21C` [3β-hydroxychlormadinone acetate, 17α-acetoxychloropregna-4,6-dien-3β-ol-20-one], in data set [1], the “average dose released by human abdominal skin after 24 hours” value turned out to be 0.7 µg, the “skin penetration compared with CMA (times lower)” value was 6 times and the “skin permeability / skin penetration compared with CMA (in words)” value is “far lesser degree of skin penetration compared with CMA; also recorded: far less than that of CMA”. Further, in data set [2], the “antiandrogenic efficacy relative to CMA (ratio)” value was 0.7 times.
